Structures are written as SMILES.

This is an account of results in patent publication US20100119599A1 (ARCHER PHARMACEUTICALS, INC., priority 2006, published 2010).

Experiment [1] relates to Aβ1-42. The experiment can be described thus: Measurement of Aβ1-42 in culture medium of 7W WT APP751 CHO cells by ELISA. Conditions: Cricetulus griseus; Table 1; 5 μM test compound; CHO cells stably transfected with human APP751; culture medium, ELISA; control DMSO; 0 = no detectable amount; read-out: Aβ1-42 (% of control). Format: cell-based, Chinese hamster. On the technique in general: In an ELISA, binding on a coated surface is turned into a signal by an enzyme label.

In experiment [2] the test system is Aβ1-40. The experiment can be described thus: Measurement of Aβ1-40 in culture medium of 7W WT APP751 CHO cells by ELISA. Conditions: Cricetulus griseus; Table 1; 5 μM test compound; CHO cells stably transfected with human APP751; culture medium, ELISA; control DMSO; 0 = no detectable amount. It counts as cell-based, Chinese hamster.
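Note: 5 µM test compound but RI-coded compounds at 10 µM for 24 hours.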

`COC(=O)C1=C(C)NC2=C(C(=O)CC(c3ccc(Cl)cc3)C2)C1c1ccc(C)cc1` (stereo not shown) [ST015214, methyl 7-(4-chlorophenyl)-2-methyl-4-(4-methylphenyl)-5-oxo-1,4,6,7,8-pentahydroquinoline-3-carboxylate]: the activity at 5 µM in experiment [1] came to 66.7%; in experiment [2], 60.7%.

Take `COC(=O)C1=C(C)NC2=C(C(=O)CC(c3ccc(Cl)cc3)C2)C1c1ccc(Cl)c(Cl)c1` (stereo not shown) [ST015215, methyl 4-(3,4-dichlorophenyl)-7-(4-chlorophenyl)-2-methyl-5-oxo-1,4,6,7,8-pentahydroquinoline-3-carboxylate]: the activity at 5 µM was 39.8% in experiment [1] and 23.1% in experiment [2].

As for `COC(=O)C1=C(C)NC2=C(C(=O)CC(c3ccc(Cl)cc3)C2)C1c1ccccc1F` (stereo not shown) [ST015216, methyl 7-(4-chlorophenyl)-4-(2-fluorophenyl)-2-methyl-5-oxo-1,4,6,7,8-pentahydroquinoline-3-carboxylate], the activity at 5 µM in experiment [1] was 93.2%; in experiment [2] it was 68.4%.

Turning to `COC(=O)C1=C(C)NC2=C(C(=O)CC(c3ccc(Cl)cc3)C2)C1c1ccccc1` (stereo not shown) [ST015218, methyl 7-(4-chlorophenyl)-2-methyl-5-oxo-4-phenyl-1,4,6,7,8-pentahydroquinoline-3-carboxylate], the activity at 5 µM in experiment [1] was determined as 0%; in experiment [2], 59.3%.

Turning to `COCCOC(=O)C1=C(C)NC2=C(C(=O)CCC2)C1c1cccc(OC)c1` (stereo not shown) [ST015219, 2-methoxyethyl 4-(3-methoxyphenyl)-2-methyl-5-oxo-1,4,6,7,8-pentahydroquinoline-3-carboxylate], the values for the activity at 5 µM in experiment [1] and in experiment [2] were 45.8% and 83.7%, respectively.

With `CC1=C(C(=O)OCCc2ccccc2)C(c2ccccc2Br)C2=C(CC(c3ccccc3)CC2=O)N1` (stereo not shown) [ST015234, 2-phenylethyl 4-(2-bromophenyl)-2-methyl-5-oxo-7-phenyl-1,4,6,7,8-pentahydroquinoline-3-carboxylate], the activity at 5 µM in experiment [1] is 54.8%; in experiment [2], 51.8%.

`CCOC(=O)C1=C(C)NC2=C(C(=O)CC(c3ccccc3)C2)C1c1cc(OC)ccc1OC` (stereo not shown) [ST015254, ethyl 4-(2,5-dimethoxyphenyl)-2-methyl-5-oxo-7-phenyl-1,4,6,7,8-pentahydroquinoline-3-carboxylate]: the activity at 5 µM in experiment [1] came to 33.8%; in experiment [2], 46.9%.

On to `CC1=C(C(=O)OCCc2ccccc2)C(c2ccc([N+](=O)[O-])cc2)C2=C(CC(c3ccccc3)CC2=O)N1` (stereo not shown) [ST015255, 2-phenylethyl 2-methyl-4-(4-nitrophenyl)-5-oxo-7-phenyl-1,4,6,7,8-pentahydroquinoline-3-carboxylate], for which the values for the activity at 5 µM in experiment [1] and in experiment [2] were 74.7% and 40.5%, respectively.

As to `CCOC(=O)C1=C(C)NC2=C(C(=O)CC(c3ccc(OC)cc3)C2)C1c1ccccc1F` (stereo not shown) [ST015256, ethyl 4-(2-fluorophenyl)-7-(4-methoxyphenyl)-2-methyl-5-oxo-1,4,6,7,8-pentahydroquinoline-3-carboxylate], the activity at 5 µM in experiment [1] turned out to be 75.8%; in experiment [2], 69.8%.

As to `COC(=O)C1=C(C)NC2=C(C(=O)CC(c3ccc(Cl)cc3)C2)C1c1ccc(OCc2ccccc2)cc1` (stereo not shown) [ST016953, methyl 7-(4-chlorophenyl)-2-methyl-5-oxo-4-[4-(phenylmethoxy)phenyl]-1,4,6,7,8-pentahydroquinoline-3-carboxylate], the activity at 5 µM in experiment [1] amounted to 69.7%; in experiment [2], 43.9%.

`COc1ccc(COC(=O)C2=C(C)NC3=C(C(=O)CCC3)C2c2cccc(F)c2)cc1` (stereo not shown) [ST016959, (4-methoxyphenyl)methyl 4-(3-fluorophenyl)-2-methyl-5-oxo-1,4,6,7,8-pentahydroquinoline-3-carboxylate]: the results for the activity at 5 µM in experiment [1] and in experiment [2] were 57.2% and 28.8%, respectively.

As for `COCCOC(=O)C1=C(C)NC2=C(C(=O)CC(c3ccc(Cl)cc3)C2)C1c1ccc(Br)cc1` (stereo not shown) [ST016960, 2-methoxyethyl 4-(4-bromophenyl)-7-(4-chlorophenyl)-2-methyl-5-oxo-1,4,6,7,8-pentahydroquinoline-3-carboxylate], the values for the activity at 5 µM in experiment [1] and in experiment [2] were 76.4% and 51.5%, respectively.

As to `COc1ccc(C2CC(=O)C3=C(C2)NC(C)=C(C(=O)OC(C)C)C3c2ccc(OCc3ccccc3)cc2)cc1` (stereo not shown) [ST016961, methylethyl 7-(4-methoxyphenyl)-2-methyl-5-oxo-4-[4-(phenylmethoxy)phenyl]-1,4,6,7,8-pentahydroquinoline-3-carboxylate], the activity at 5 µM worked out at 89.5% in experiment [1] and 41.8% in experiment [2].

In the case of `CCOc1cc(C2C(C(=O)OCc3ccc(OC)cc3)=C(C)NC3=C2C(=O)CC(C)(C)C3)ccc1O` (stereo not shown) [ST016964, (4-methoxyphenyl)methyl 4-(3-ethoxy-4-hydroxyphenyl)-2,7,7-trimethyl-5-oxo-1,4,6,7,8-pentahydroquinoline-3-carboxylate], the activity at 5 µM in experiment [1] is 40%; in experiment [2] it was 36.4%.

In the case of `CC1=C(C(=O)OCC(C)C)C(c2cccc(Cl)c2)C2=C(CC(c3ccccc3)CC2=O)N1` (stereo not shown) [ST016969, 2-methylpropyl 4-(3-chlorophenyl)-2-methyl-5-oxo-7-phenyl-1,4,6,7,8-pentahydroquinoline-3-carboxylate], the activity at 5 µM was found to be 60.2% in experiment [1] and 30.3% in experiment [2].

Consider `CCc1ccc(C2C(C(=O)OCC(C)C)=C(C)NC3=C2C(=O)CC(c2ccccc2)C3)cc1` (stereo not shown) [ST016970, 2-methylpropyl 4-(4-ethylphenyl)-2-methyl-5-oxo-7-phenyl-1,4,6,7,8-pentahydroquinoline-3-carboxylate], for which the activity at 5 µM in experiment [1] is 27.8%; in experiment [2] it was 27.7%.

For the compound `COCCOC(=O)C1=C(C)NC2=C(C(=O)CC(c3ccc(Cl)cc3)C2)C1c1ccc([N+](=O)[O-])cc1` (stereo not shown) [ST016971, 2-methoxyethyl 7-(4-chlorophenyl)-2-methyl-4-(4-nitrophenyl)-5-oxo-1,4,6,7,8-pentahydroquinoline-3-carboxylate], the activity at 5 µM in experiment [1] stood at 86.2%; in experiment [2] it was 27.3%.

As for `CCOc1ccc(C2C(C(=O)OC)=C(C)NC3=C2C(=O)CC(c2ccc(OC)cc2)C3)cc1` (stereo not shown) [ST016974, methyl 4-(4-ethoxyphenyl)-7-(4-methoxyphenyl)-2-methyl-5-oxo-1,4,6,7,8-pentahydroquinoline-3-carboxylate], the activity at 5 µM in experiment [1] amounted to 57.4%; in experiment [2] it was 34.6%.

Regarding `CC1=C(C(=O)OCC(C)C)C(c2ccc3c(c2)OCO3)C2=C(CC(c3ccccc3)CC2=O)N1` (stereo not shown) [ST016978, 2-methylpropyl 4-(2H-benzo[3,4-d]1,3-dioxolen-5-yl)-2-methyl-5-oxo-7-phenyl-1,4,6,7,8-pentahydroquinoline-3-carboxylate], the activity at 5 µM was determined as 99.5% in experiment [1] and 45.9% in experiment [2].

Turning to `CCCOc1ccc(C2C(C(=O)OCc3ccc(OC)cc3)=C(C)NC3=C2C(=O)CC(C)(C)C3)cc1OC` (stereo not shown) [ST016979, (4-methoxyphenyl)methyl 4-(3-methoxy-4-propoxyphenyl)-2,7,7-trimethyl-5-oxo-1,4,6,7,8-pentahydroquinoline-3-carboxylate], the activity at 5 µM was found to be 90.1% in experiment [1] and 53.7% in experiment [2].
